Measurements from PMC7053198 (Theranostics, 2020).

Tests used:
Capan-1 tumor xenografts = type: in vivo, mouse; conditions: n=3
Capan-1 cells [1] = system: Capan-1 cells
Panc0403/PS1 xenografts = type: in vivo, mouse; conditions: n=4
Panc1 cell line = type: cell-based; conditions: after 30 min
A375Pβ6 cells [2] = system: A375Pβ6 cells
in vivo = conditions: female, CD1 Nu/Nu, mouse, ip, 20 ug/kg
A375Ppuro cells [3] = type: cell-based, human; conditions: 30 min at 4°C
A375Ppuro cells [4] = system: A375Ppuro cells
[5] = system: Panc0403/PS1 tumor xenografts; type: in vivo, mouse; conditions: n=4
[6] = mouse, in vivo, ip
A375Pβ6 cells [7] = type: cell-based, human; conditions: 30 min at 4°C
[8] = system: αvβ6-positive versus αvβ6-negative cell lines; type: cell-based
[9] = system: PANC354, PANC253 and PANC215 PDX PDAC cells; type: cell-based, human
A375Pβ6 xenografts = conditions: mouse, in vivo, ip
Capan-1 cells [10] = type: cell-based, human
A375Ppuro xenografts = type: in vivo, mouse; conditions: after 21 days
[11] = in vivo, ip
Capan-1 PDAC xenografts = conditions: mouse, in vivo, ip

For `COc1cc2c(cc1OCCCCCOc1cc3c(cc1OC)C(=O)N1C=C(C)C[C@H]1[C@H](O)N3C(=O)OCc1ccc(NC(=O)[C@H](C)NC(=O)[C@@H](NC(=O)CCOCCOCCOCCOCCOCCOCCOCCOCCNC(=O)CCN3C(=O)CC(SC[C@H](NC(=O)[C@@H](NC(=O)[C@H](CCCNC(=N)N)NC(=O)[C@H](C)NC(=O)[C@@H](NC(=O)[C@H](CCCCN)NC(=O)[C@H](CCC(N)=O)NC(=O)[C@H](C)NC(=O)[C@H](CC(C)C)NC(=O)[C@@H](NC(=O)[C@H](CCC(N)=O)NC(=O)[C@H](CC(C)C)NC(=O)[C@H](CC(=O)O)NC(=O)CNC(=O)[C@H](CCCNC(=N)N)NC(=O)[C@H](CC(C)C)NC(=O)[C@H](CC(N)=O)NC(=O)[C@@H]4CCCN4C(=O)[C@@H](NC(=O)[C@H](C)NC(=O)[C@H](CC(N)=O)NC(=O)CCCC[C@@H]4SC[C@@H]5NC(=O)N[C@@H]54)C(C)C)C(C)C)C(C)C)[C@@H](C)O)C(=O)O)C3=O)C(C)C)cc1)N=C[C@@H]1CC(C)=CN1C2=O` (stereo partly drawn) [SG3299], the “increase in DNA damage (γH2AX) compared with PBS” value (Capan-1 tumor xenografts) was 5.9 fold, the “increase in apoptosis (cleaved-caspase 3) from PBS” value (Capan-1 tumor xenografts) was 5.8 fold and the “increased vimentin compared with PBS” value (Capan-1 tumor xenografts) was 4.6 fold. For the same molecule, the “increased α-sma expression from PBS” value (Capan-1 tumor xenografts) was 1.9 fold, the “reduction in CK-positive epithelial cells compared with PBS” value (Capan-1 tumor xenografts) was 79.2±11.2% and the “reduction in E-cadherin-positive epithelial cells compared with PBS” value (Capan-1 tumor xenografts) was 85±8%. The “reduction in proliferation (Ki67 staining) compared with SG3511” value (Capan-1 tumor xenografts) was 66.2±15.7%, the “reduction in proliferation (Ki67 staining) compared with control” value (Capan-1 tumor xenografts) was 67.5±15% and the “PDC αvβ6 Specificity Ratio” value (Capan-1 cells [1]) was 2.80. The IC50 (Capan-1 cells [1]; 72 h) was 4.19 ± 3.76 nM, the “reduction of xenograft tumor growth compared with PBS treatment” value (Panc0403/PS1 xenografts) was 75.8±6% and the “reduction of xenograft tumor growth compared with SG3511 therapy” value (Panc0403/PS1 xenografts) was 60.4±9.8%. The “PDC αvβ6 Specificity Ratio” value (Panc0403 cells) was 13.22, the IC50 (Panc0403 cells; 72 h) was 3.44 ± 3.29 nM and the “levels of internalised conjugate in αvβ6-negative Panc1” value (Panc1 cell line) was “no significant difference in the levels of internalised SG3299 or SG3511”. The “PDC αvβ6 Specificity Ratio” value (A375Pβ6 cells [2]) was 15.02, the “more potent in A375Pβ6 cells than SG3511” value (A375Pβ6 cells [2]) was “over 15 fold” and the “more selective for A375Pβ6 cells than A375Ppuro cells” value (A375Pβ6 cells [2]) was 5.7 fold. It also gave an IC50 (A375Pβ6 cells [2]; 72 h) of 5.37 ± 5.23 nM, a level at time molar at 2 min (in vivo) of 11 ± 4.3 nM and a level at time molar at 5 min (in vivo) of 9.5 ± 4.3 nM. The level at time molar at 0.25 h (in vivo) was 19.2 ± 4.9 nM, the level at time molar at 1 h (in vivo) was 27.9 ± 4.2 nM and the “PDC αvβ6 Specificity Ratio” value (Colo357 cells) was 10.97. For the same molecule, the IC50 (Colo357 cells; 72 h) was 2.24 ± 1.59 nM, the “binding to A375Ppuro cells (MFI)” value (A375Ppuro cells [3]) was “failed to bind” and the “PDC αvβ6 Specificity Ratio” value (A375Ppuro cells [4]) was 3.30. The IC50 (A375Ppuro cells [4]; 72 h) was 30.6 ± 18.8 nM, the “increase in DNA damage (γH2AX) compared with PBS” value [5] was 5.5 fold and the “increase in DNA damage (γH2AX) compared with SG3511” value [5] was 2.9 fold. The “reduction of epithelial cell number (CK) compared with PBS” value [5] was 44.2±18.1%, the “reduction of epithelial cell number (CK) compared with SG3511” value [5] was 41.2±19.1% and the “reduction of epithelial cell number (E-cadherin) compared with PBS” value [5] was 46±11%. The “reduction of epithelial cell number (E-cadherin) compared with SG3511” value [5] was 32.1±34.6%, the “reduction of proliferation (Ki67) compared with PBS” value [5] was 60±13.1% and the “reduction of proliferation (Ki67) compared with SG3511” value [5] was 54.8±13.8%. The “reduction of β6 expression compared to PBS” value [5] was 73.4±11%, the “reduction of β6 expression compared to SG3511” value [5] was 61.1±16.1% and the detection in urine [6] was “No SG3299 was detected in the urine”. For the same molecule, the “binding to A375Pβ6 cells (MFI)” value (A375Pβ6 cells [7]) was “dose-dependent binding”, the “higher toxicity at equal dose than the non-targeted PDC SG3511” value [8] was “up to 15 fold” and the “more toxic for αvβ6-expressing versus αvβ6-negative PDAC cell lines” value [8] was “up to 78 fold”. The “reduction of the number of spheres formed compared with control-treated spheres” value [9] was 72±27%, the “reduced growth more than SG3511” value (A375Pβ6 xenografts) was 2.3 fold and the “reduction of tumor growth compared with PBS treatment” value (A375Pβ6 xenografts) was 79±7%. The “PDC αvβ6 Specificity Ratio” value (Panc1 cells) was 0.33, the IC50 (Panc1 cells; 72 h) was 176 ± 116 nM and the “binding and internalisation in Capan-1 cells” value (Capan-1 cells [10]) was “strong binding and entry into the cytoplasm”. The “reduction in tumor size compared with vehicle (PBS)” value (A375Ppuro xenografts) was 34.8±4.6%, the “adverse effects (mouse weight, behaviour, gross histology of lung, intestine and stomach)” value [11] was “no gross adverse effects” and the “effect on tumor growth” value (Capan-1 PDAC xenografts) was “significant growth inhibition”. The “mice with tumors eliminated” value (Capan-1 PDAC xenografts) was 4 out of 5, the “reduction of tumor growth compared to PBS” value (Capan-1 PDAC xenografts) was 97.7±2% and the “reduction of tumor growth compared to SG3511” value (Capan-1 PDAC xenografts) was 96.1±3.4%.
